Experimental data reported in patent US11046700B2, “Substituted imidazo[1,2-a]pyrazines, pyrazolo[1,5-c]pyrimidines, pyrazolo[1,5-a]pyridines, and purines for the treatment of schistosomiasis” (Merck Patent GmbH, priority 2017, dated 2021).
pIC50: −log10 of the molar value.

Columns and labels:
Format in all cases: cell-based
HepG2 cell line = assay: Cytotoxicity against human HepG2 cell lines
[1] = test system: S. mansoni juvenile worms; assay: In vitro assay, S. mansoni juvenile worms; details: Schistosoma mansoni; S. mansoni juvenile worms, in vitro; read-out: (b) Juvenile
Description: (§1) The routine biological assays using adult or juvenile worms and cytotoxicity assays using MRC-5 cells have been disclosed previously in Mansour, N. R., et al. (2016). “High Throughput Screening Identifies Novel Lead Compounds with Activity against Larval, Juvenile and Schistosoma mansoni PLoS Negl Trap Dis 10(4): e0004659. Cytotoxicity assays using the HepG2 cell line were carried out as described in Molecular Diversity (2015) 19, 251-261.
(b) S. mansoni juvenile worms

S. mansoni adult worms = assay: In vitro assay, S. mansoni adult worms; details: Schistosoma mansoni; S. mansoni adult worms, in vitro; read-out: (a) Adult
Description: as §1
(a) S. mansoni adult worms

Row | SMILES | (e) Cytotox HepG2 (HepG2 cell line) | pIC50 [1] | pIC50 (S. mansoni adult worms)
1 | CC(C)c1cccc(-c2cn3c(-c4ccc5[nH]ncc5c4F)c(C(F)(F)F)nc3cn2)c1 [Example 66, 3-(4-Fluoro-1H-indazol-5-yl)-6-(3-isopropyl-phenyl)-2-trifluoromethyl-imidazo[1,2-a]pyrazine] | 12.9 µM | 8.28 | 8.28
2 | Fc1ccc(-c2cn3c(-c4ccc5[nH]ncc5c4F)c(C(F)(F)F)nc3cn2)cc1CC(F)(F)F [Example 69, 3-(4-Fluoro-1H-indazol-5-yl)-6-[4-fluoro-3-(2,2,2-trifluoro-ethyl)-phenyl]-2-trifluoromethyl-imidazo[1,2-a]pyrazine] | 5.3 µM | 8.00 | 7.92
3 | Fc1ccc(-c2cn3c(-c4ccc5[nH]ncc5c4F)c(C(F)(F)F)nc3cn2)cc1OC(F)(F)F [Example 71, 3-(4-Fluoro-1H-indazol-5-yl)-6-(4-fluoro-3-trifluoromethoxy-phenyl)-2-trifluoromethyl-imidazo[1,2-a]pyrazine] | 12.2 µM | 7.68 | 7.85
4 | Fc1c(-c2c(C(F)(F)F)nc3cnc(-c4cccc(OC(F)(F)F)c4)cn23)ccc2[nH]ncc12 [Example 72, 3-(4-Fluoro-1H-indazol-5-yl)-6-(3-trifluoromethoxy-phenyl)-2-trifluoromethyl-imidazo[1,2-a]pyrazine] | 9.7 µM | 7.64 | 7.68
5 | CC(C)c1cc(-c2cn3c(-c4ccc5[nH]ncc5c4F)c(C(C)C)nc3cn2)ccc1F [Example 74, 3-(4-Fluoro-1H-indazol-5-yl)-6-(4-fluoro-3-isopropyl-phenyl)-2-isopropyl-imidazo[1,2-a]pyrazine] | 11.0 µM | 8.30 | 8.40
6 | CCc1nc2cnc(-c3ccc(F)c(C(C)C)c3)cn2c1-c1ccc2[nH]ncc2c1F [Example 75, 2-Ethyl-3-(4-fluoro-1H-indazol-5-yl)-6-(4-fluoro-3-isopropyl-phenyl)-imidazo[1,2-a]pyrazine] | 11.3 µM | 8.30 | 8.40
7 | CC(C)c1cc(-c2cn3c(-c4ccc5[nH]ncc5c4F)c(C4CCC4)nc3cn2)ccc1F [Example 77, 2-Cyclobutyl-3-(4-fluoro-1H-indazol-5-yl)-6-(4-fluoro-3-isopropyl-phenyl)-imidazo[1,2-a]pyrazine] | 10.8 µM | 8.40 | 8.15
8 | CC(C)c1cc(-c2cn3c(-c4ccc5[nH]ncc5c4F)c(C4CC4)nc3cn2)ccc1F [Example 79, 2-Cyclopropyl-3-(4-fluoro-1H-indazol-5-yl)-6-(4-fluoro-3-isopropyl-phenyl)-imidazo[1,2-a]pyrazine] | 15.7 µM | 8.30 | 8.30
9 | CC(C)Oc1cc(-c2cn3c(-c4ccc5[nH]ncc5c4F)c(C(F)(F)F)nc3cn2)ccc1F [Example 81, 3-(4-Fluoro-1H-indazol-5-yl)-6-(4-fluoro-3-isopropoxy-phenyl)-2-trifluoromethyl-imidazo[1,2-a]pyrazine] | 9.2 µM | 7.92 | 7.96
10 | Fc1ccc(-c2cn3c(-c4ccc5[nH]ncc5c4F)c(C(F)(F)F)nc3cn2)cc1C1CCC1 [Example 82, 6-(3-Cyclobutyl-4-fluoro-phenyl)-3-(4-fluoro-1H-indazol-5-yl)-2-trifluoromethyl-imidazo[1,2-a]pyrazine] | 6.1 µM | 7.23 | 7.35
11 | CC(C)c1cc(-c2cn3c(-c4ccc5[nH]ncc5c4Cl)c(C(F)(F)F)nc3cn2)ccc1F [Example 83, 3-(4-Chloro-1H-indazol-5-yl)-6-(4-fluoro-3-isopropyl-phenyl)-2-trifluoromethyl-imidazo[1,2-a]pyrazine] | 6.6 µM | 7.82 | > 7.92
12 | Fc1ccc(-c2cn3c(-c4ccc5[nH]ncc5c4F)c(C(F)(F)F)nc3cn2)cc1C1CC1 [Example 84, 6-(3-Cyclopropyl-4-fluoro-phenyl)-3-(4-fluoro-1H-indazol-5-yl)-2-trifluoromethyl-imidazo[1,2-a]pyrazine] | 10.5 µM | 7.72 | 7.92
13 | CC(C)Oc1cccc(-c2cn3c(-c4ccc5[nH]ncc5c4F)c(C(F)(F)F)nc3cn2)c1 [Example 86, 3-(4-Fluoro-1H-indazol-5-yl)-6-(3-isopropoxy-phenyl)-2-trifluoromethyl-imidazo[1,2-a]pyrazine] | 13.2 µM | 7.59 | 7.77
14 | CC(C)c1cc(-c2cn3c(-c4ccc5[nH]ncc5c4F)c(C(F)(F)F)nc3cn2)ccn1 [Example 87, 3-(4-Fluoro-1H-indazol-5-yl)-6-(2-isopropyl-pyridin-4-yl)-2-trifluoromethyl-imidazo[1,2-a]pyrazine] | 9.5 µM | 7.04 | 7.43
15 | Fc1c(-c2c(C(F)(F)F)nc3cnc(-c4ccnc(C(F)(F)F)c4)cn23)ccc2[nH]ncc12 [Example 88, 3-(4-Fluoro-1H-indazol-5-yl)-2-trifluoromethyl-6-(2-trifluoromethyl-pyridin-4-yl)-imidazo[1,2-a]pyrazine] | 7.0 µM | 6.85 | 6.94
16 | CC(C)c1nc2cnc(-c3ccc(F)c(C(F)(F)F)c3)nc2n1-c1c(F)cc(O)cc1F [Example 89, 3,5-Difluoro-4-[2-(4-fluoro-3-trifluoromethyl-phenyl)-8-isopropyl-purin-9-yl]-phenol] | 4.8 µM | 6.89 | 7.15
17 | CC(C)c1nc2cnc(-c3cccc(C(F)(F)F)c3)nc2n1-c1ccc(O)cc1F [Example 90, 3-fluoro-4-[8-(propan-2-yl)-2-[3-(trifluoromethyl)phenyl]-9H-purin-9-yl]phenol] | 9.3 µM | 6.33 | 7.11
